For the test, the target named is Recombinant human LSD1 (Homo sapiens, UniProt O60341). The test can be described thus: LSD1 inhibition assay (HTRF LSD1 Histone H3K4 mono-demethylation assay, me1->me0). Format: biochemical. The following applies: 20 nM recombinant human LSD1, 95 nM H3K4(me1) biotinylated peptide, 15 min preincubation, 60 min at 25° C., read-out: LSD1 inhibition IC50 (nM range). The method, boiled down: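 Recombinant human LSD1 (20 nM) pre-incubated 15 min with 10 semi-log compound doses, then 95 nM biotinylated H3K4me1 peptide for 60 min at 25 °C in pH 8.5 Tris/NaCl buffer with 10 μM FAD, 1 mM DTT. HTRF me0-antibody read after 90 min; IC50 from 4-parameter fit.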
(Time-resolved FRET reads energy transfer from a long-lived donor to a nearby acceptor.)

Where only a bound is given, the exact number is not on record here.

Take `N#Cc1ccc(-c2cc(CN3CC4(CNCCO4)C3)ccc2N2CCCC2)cc1F` [Example 344, 3-fluoro-5'-({5-oxa-2,8-diazaspiro[3.5]nonan-2-yl}methyl)-2'-(pyrrolidin-1-yl)-[1,1'-biphenyl]-4-carbonitrile]: the IC50 was greater than 1000 nM.

Take `N#Cc1ccc(-c2cccc(CN3[C@@H]4CC[C@H]3[C@@H](N)C4)c2-c2ccsc2)cc1F` (racemic) [Example 244, 3'-{[(1S,2S,4R)-2-amino-7-azabicyclo[2.2.1]heptan-7-yl]methyl}-3-fluoro-2'-(thiophen-3-yl)-[1,1'-biphenyl]-4-carbonitrile]: the IC50 was in the range of 25 to 100 nM.

With `N#Cc1ccc(-c2cccc(CN3C4CCC3CNC4)c2C2CC2)cc1F` [Example 265, 2'-cyclopropyl-3'-({3,8-diazabicyclo[3.2.1]octan-8-yl}methyl)-3-fluoro-[1,1'-biphenyl]-4-carbonitrile], the IC50 fell in the range of 25 to 100 nM.

For `N#Cc1ccc(-c2cccc(CN3[C@H]4CC[C@@H]3[C@H](N)C4)c2CC2CC2)cc1F` (single isomer, unassigned) [Example 221], the half-inhibitory concentration (IC50) was in the range of 25 to 100 nM.

On to `Cc1cc(CNCC2CCN(C)C2)c(Cl)c(-c2ccc(C#N)c(F)c2)c1` (stereo not drawn) [Example 226, 2'-chloro-3-fluoro-5'-methyl-3'-({[(1-methylpyrrolidin-3-yl)methyl]amino}methyl)-[1,1'-biphenyl]-4-carbonitrile], for which the IC50 was 100 to 1000 nM.

Take `N#Cc1ccc(-c2cc(CN3CC4(CNCCO4)C3)ccc2N2CCCC2)cc1` [Example 343, 5'-({5-oxa-2,8-diazaspiro[3.5]nonan-2-yl}methyl)-2'-(pyrrolidin-1-yl)-[1,1'-biphenyl]-4-carbonitrile]: the IC50 is greater than 1000 nM.

As for `N#Cc1ccc(-c2cc(CC3CNCCO3)ccc2OC[C@@H]2CCCOC2)cc1F` (stereo partly drawn) [Example 72, 3-fluoro-5′-[(morpholin-2-yl)methyl]-2′-{[(3R)-oxa-3-yl]methoxy}-[1,1′-biphenyl]-4-carbonitrile], the IC50 fell in the range of 100 to 1000 nM.

With `N#Cc1ccc(-c2cc(CN3[C@@H]4CC[C@H]3[C@@H](N)C4)ccc2-c2ccsn2)cc1F` (racemic) [Example 252, 5'-{[(1S,2S,4R)-2-amino-7-azabicyclo[2.2.1]heptan-7-yl]methyl}-3-fluoro-2'-(1,2-thiazol-3-yl)-[1,1'-biphenyl]-4-carbonitrile], the IC50 is 25 to 100 nM.

As to `N#Cc1ccc(-c2cc(CC3CNCCO3)ccc2N2CCC3(CCOC3)C2)cc1F` (stereo not drawn) [Example 119, 3-fluoro-5′-[(morpholin-2-yl)methyl]-2′-{2-oxa-7-azaspiro[4.4]nonan-7-yl}-[1,1′-biphenyl]-4-carbonitrile], the IC50 lay within 100 to 1000 nM.

For the compound `COc1ccc(-c2ccc(CC3CNCCO3)cc2-c2ccc(C#N)c(F)c2)cn1` (stereo not drawn) [Example 80, 3-fluoro-2′-(6-methoxypyridin-3-yl)-5′-[(morpholin-2-yl)methyl]-[1,1′-biphenyl]-4-carbonitrile], the IC50 lay in the range of 100 to 1000 nM.

For `N#Cc1ccc(-c2cc(Cl)cc(CN3[C@@H]4CC[C@H]3[C@@H](N)C4)c2-c2cncs2)cc1F` (racemic) [Example 268, 3'-{[(1S,2S,4R)-2-amino-7-azabicyclo[2.2.1]heptan-7-yl]methyl}-5'-chloro-3-fluoro-2'-(1,3-thiazol-5-yl)-[1,1'-biphenyl]-4-carbonitrile], the half-inhibitory concentration (IC50) was in the range of 10 to 25 nM.

For `N#Cc1ccc(-c2cc(C[C@@H]3CNCCO3)ccc2N2CCC2)cc1F` (single isomer, unassigned) [Example 41], the IC50 was in the range of 100 to 1000 nM.

As for `C[C@@H]1CC[C@H](N)CN1Cc1cccc(-c2ccc(C#N)c(F)c2)c1Cl` [Example 330, 3'-{[(2R,5S)-5-amino-2-methylpiperidin-1-yl]methyl}-2'-chloro-3-fluoro-[1,1'-biphenyl]-4-carbonitrile], the IC50 is greater than 1000 nM.

Turning to `N#Cc1ccc(-c2ccc(F)c(CN3C[C@@H]4[C@H](N)[C@@H]4C3)c2Cl)cc1F` [Example 291, 3'-{[(1R,5S,6S)-6-amino-3-azabicyclo[3.1.0]hexan-3-yl]methyl}-2'-chloro-3,4'-difluoro-[1,1'-biphenyl]-4-carbonitrile], the IC50 is 100 to 1000 nM.

In the case of `CN(CC1CC1)c1ccc(CN2[C@@H]3CC[C@H]2[C@@H](N)C3)cc1-c1ccc(C#N)c(F)c1` (racemic) [Example 254, 5'-{[(1S,2S,4R)-2-amino-7-azabicyclo[2.2.1]heptan-7-yl]methyl}-2'-[(cyclopropylmethyl)(methyl)amino]-3-fluoro-[1,1'-biphenyl]-4-carbonitrile], the IC50 fell in the range of 10 to 25 nM.

`N#Cc1ccc(-c2cc(F)cc(CC3CNCCO3)c2-c2ccns2)cc1F` (stereo not drawn) [Example 18, 3,5′-difluoro-3′-[(morpholin-2-yl)methyl]-2′-(1,2-thiazol-5-yl)-[1,1′-biphenyl]-4-carbonitrile]: the IC50 was 10 to 25 nM.

In the case of `N#Cc1ccc(-c2cccc(CC3CNCCO3)c2-c2cnccn2)cc1F` (stereo not drawn) [Example 128, 3-fluoro-3′-[(morpholin-2-yl)methyl]-2′-(pyrazin-2-yl)-[1,1′-biphenyl]-4-carbonitrile], the IC50 lay in the range of 25 to 100 nM.

Turning to `COCC1CCN(c2ccc(CN3[C@@H]4CC[C@H]3[C@@H](N)C4)cc2-c2ccc(C#N)c(F)c2)CC1` (racemic) [Example 209, 5'-{[(1S,2S,4R)-2-amino-7-azabicyclo[2.2.1]heptan-7-yl]methyl}-3-fluoro-2'-[4-(methoxymethyl)piperidin-1-yl]-[1,1'-biphenyl]-4-carbonitrile], the IC50 was 10 to 25 nM.

`Cc1ncoc1-c1c(CC2CNCCO2)cccc1-c1ccc(C#N)c(F)c1` (stereo not drawn) [Example 51, 3-fluoro-2′-(4-methyl-1,3-oxazol-5-yl)-3′-[(morpholin-2-yl)methyl]-[1,1′-biphenyl]-4-carbonitrile]: the IC50 was 25 to 100 nM.

For the compound `Cc1nocc1-c1c(CC2CNCCO2)cccc1-c1ccc(C#N)c(F)c1` (stereo not drawn) [Example 35, 3-fluoro-2′-(3-methyl-1,2-oxazol-4-yl)-3′-[(morpholin-2-yl)methyl]-[1,1′-biphenyl]-4-carbonitrile], the IC50 lay in the range of 25 to 100 nM.

As to `COc1ccc(-c2ccc(CN3[C@@H]4CC[C@H]3[C@@H](N)C4)cc2-c2ccc(C#N)c(F)c2)cc1F` (racemic) [Example 222, 4-(4-{[(1S,2S,4R)-2-amino-7-azabicyclo[2.2.1]heptan-7-yl]methyl}-3'-fluoro-4'-methoxy-[1,1'-biphenyl]-2-yl)-2-fluorobenzonitrile], the IC50 lay in the range of 10 to 25 nM.

For `N#Cc1ccc(-c2cc(CC3CNCCO3)ccc2N2CCN(c3nccs3)CC2)cc1F` (stereo not drawn) [Example 88, 3-fluoro-5′-[(morpholin-2-yl)methyl]-2′-[4-(1,3-thiazol-2-yl)piperazin-1-yl]-[1,1′-biphenyl]-4-carbonitrile], the IC50 fell in the range of 100 to 1000 nM.

Turning to `CCCc1c(CN2[C@H]3CC[C@@H]2[C@H](N)C3)cccc1-c1ccc(C#N)c(F)c1` (single isomer, unassigned) [Example 212], the IC50 was in the range of 25 to 100 nM.

`CC1CC1c1c(CN2[C@@H]3CC[C@H]2[C@@H](N)C3)cccc1-c1ccc(C#N)c(F)c1` (mixture of isomers) [Example 247, 3'-{[(1S,2S,4R)-2-amino-7-azabicyclo[2.2.1]heptan-7-yl]methyl}-3-fluoro-2'-(2-methylcyclopropyl)-[1,1'-biphenyl]-4-carbonitrile]: the IC50 is 25 to 100 nM.

Take `N#Cc1ccc(-c2ccc(F)c(CN3C[C@]4(N)CC[C@H]3C4)c2-c2ccns2)cc1F` [Example 185, 3'-{[(1S,4S)-4-amino-2-azabicyclo[2.2.1]heptan-2-yl]methyl}-3,4'-difluoro-2'-(1,2-thiazol-5-yl)-[1,1'-biphenyl]-4-carbonitrile]: the IC50 was less than 10 nM.

As for `N#Cc1ccc(-c2cccc(CC3CNCCO3)c2-n2cccn2)cc1F` (stereo not drawn) [Example 90, 2-fluoro-4-[3-(morpholin-2-ylmethyl)-2-pyrazol-1-yl-phenyl]benzonitrile], the IC50 was greater than 1000 nM.

As to `CC(C)C1(O)CCN(c2ccc(CN3C[C@]4(N)CC[C@H]3C4)cc2-c2ccc(C#N)c(F)c2)CC1` [Example 262, 5'-{[(1S,4S)-4-amino-2-azabicyclo[2.2.1]heptan-2-yl]methyl}-3-fluoro-2'-[4-hydroxy-4-(propan-2-yl)piperidin-1-yl]-[1,1'-biphenyl]-4-carbonitrile], the IC50 was in the range of 10 to 25 nM.

Turning to `Cc1cc(CNCC2(C)CCN(C)C2)c(Cl)c(-c2ccc(C#N)c(F)c2)c1` (stereo not drawn) [Example 298, 2'-chloro-3'-({[(1,3-dimethylpyrrolidin-3-yl)methyl]amino}methyl)-3-fluoro-5'-methyl-[1,1'-biphenyl]-4-carbonitrile], the IC50 is 100 to 1000 nM.

Turning to `N#Cc1ccc(-c2cccc(CN3C[C@@H]4C[C@@H](N)[C@H]3C4)c2-c2cncs2)cc1F` [Example 237, 3'-{[(1R,4R,6R)-6-amino-2-azabicyclo[2.2.1]heptan-2-yl]methyl}-3-fluoro-2'-(1,3-thiazol-5-yl)-[1,1'-biphenyl]-4-carbonitrile], the IC50 fell in the range of 10 to 25 nM.

Take `CC1(C)CN(Cc2cccc(-c3ccc(C#N)c(F)c3)c2-c2ccns2)C[C@@H]1N` (single isomer, unassigned) [Example 197]: the IC50 is less than 10 nM.

Take `COc1ccc(C2CN(c3ccc(CC4CNCCO4)cc3-c3ccc(C#N)c(F)c3)C2)cn1` (stereo not drawn) [Example 86, 3-fluoro-2′-[3-(6-methoxypyridin-3-yl)azetidin-1-yl]-5′-[(morpholin-2-yl)methyl]-[1,1′-biphenyl]-4-carbonitrile]: the IC50 lay within 100 to 1000 nM.

For the compound `N#Cc1ccc(-c2cc(CC3CNCCO3)ccc2N2CC(c3cccnc3)C2)cc1F` (stereo not drawn) [Example 107, 3-fluoro-5′-[(morpholin-2-yl)methyl]-2′-[3-(pyridin-3-yl)azetidin-1-yl]-[1,1′-biphenyl]-4-carbonitrile], the IC50 was 100 to 1000 nM.

With `N#Cc1ccc(-c2cc(CC3CNCCO3)ccc2C2CC2)cc1F` (stereo not drawn) [Example 141, 2′-cyclopropyl-3-fluoro-5′-[(morpholin-2-yl)methyl]-[1,1′-biphenyl]-4-carbonitrile], the IC50 fell in the range of 100 to 1000 nM.

As a reminder, the IC50 is the concentration that inhibits the measured activity by half.
